According to patent publication US10821152B2, “Methods, agents and compositions for treatment of inflammatory conditions” (Betanien Hospital, priority 2014, dated 2020):
Non-standard residues stand in square brackets, D forms with d. Residues, ends and D or L forms follow the SMILES beside them. *: point of attachment. dPhe(4-NHCONH2) = NC(=O)Nc1ccc(C[C@@H](N)C(=O)O)cc1; Dihydroorotyl(S) = O=C1C[C@@H](C(=O)*)NC(=O)N1; dPhe(4-Cl) = N[C@H](Cc1ccc(Cl)cc1)C(=O)O; Phe(4-NH2) = Nc1ccc(C[C@H](N)C(=O)O)cc1; d2Nal = N[C@H](Cc1ccc2ccccc2c1)C(=O)O; Lys(iPr) = CC(C)NCCCC[C@H](N)C(=O)O; d3Pal = N[C@H](Cc1cccnc1)C(=O)O

Columns and labels:
Format in all cases: in vivo, human
[1] = tested on: patient with systemic lupus erythematosus; assay: Treatment of lupus patient with degarelix
Text: The patient has a medical history of a multimorbid patient. Systemic lupus erythematosus (SLE) was diagnosed in 1988 based on Raynauds, skin changes, arthralgia, high titre lupus anticoagulant, ANA, SSA, and SSB. Chilblain type changes in hands and feet (FIGS. 6-8). […] The patient suffered cardiac arrest in 2012, coronary stenosis was observed. The patient had kidney failure since 2012, required dialysis, stabilized creatinine around 150, osteoporosis, COPD, and is a smoker.
By September 2014, we had no treatment options left. Therefore, we decided to offer […] degarelix. GnRH antagonists have shown anti-inflammatory effects and therefore we considered that degarelix, a depot GnRH antagonist, may have a therapeutic effect in lupus. • Sep. 15, 2014, […] received […] loading dose of degarelix, 240 mg sc. Assessment of Response
Proteinuria decline is linked to improved lupus nephritis outcomes. Korbet et al studied 61 patients in a controlled trial comparing standard therapy with plasmapheresis for severe lupus nephritis. […] They had constant, increasing proteinuria in 2014.

patient with colitis = assay: Treatment of inflammatory bowel disease (fecal calprotectin, partial Mayo score)
Procedure: • person, diagnosed with colitis • Inflammatory bowel disease, colitis verified on colonic biopsy sample. Patients with inflammatory colitis usually have a higher incidence of autoimmune diseases. This patient also had ankylosing spondylitis. Experimental Treatment • September 2014 received first dose of Degarelix 240 mg sc. • Received Degarelix 80 mg sc approximately every two weeks thereafter. Assessment of Response • The inflammatory bowel diseases (IBD's), Crohn's disease and ulcerative colitis, are chronic relapsing, remitting disorders. The assessment of disease activity presents challenges to clinicians. Fecal biomarkers, such as fecal calprotectin, are a non-invasive method which can be used to aid managing clinicians. Calprotectin is released extracellularly in times of cell stress or damage and can be detected within feces and thus be used as a sensitive marker of intestinal inflammation. […] Fecal calprotectin levels are elevated in patients with both Crohn's disease and ulcerative colitis 1-2. There have been several studies looking at the use of fecal calprotectin to predict or monitor response to treatment. • In a study looking at 11 patients with relapsing IBD, fecal calprotectin was analysed at inclusion and after 8 weeks of treatment. Treatment was individualized medical therapy. A normalized fecal calprotectin concentration at 8 weeks predicted a complete response in 100% of patients,3 corresponding to endoscopic mucosal healing4. It has been shown that in patients with steroid induced clinical remission fecal calprotectin levels can remain elevated5-6. […] A level of <50 mg/kg is considered normal or remission for IBD. • There is no gold standard index in the measurement of colitis disease activity in clinical trials. Due to the invasive nature of endoscopies, the Mayo non-invasive colitis assessment of response score can be used to assess treatment effect of IBD in clinical trials9-11. […] Both the partial Mayo and total Mayo score are used to assess disease activity in clinical trials13. The partial Mayo score also had good discriminatory value between subjects in remission and those with active disease14. A clinical response has been defined as a 3 point or greater change in the partial Mayo score15.

[2] = tested on: patient with systemic sclerosis; assay: Treatment of systemic sclerosis; settings: SSc patient
Text: • person, diagnosed with systemic sclerosis • Fulfilled the 2013 EULAR/ACR classification criteria for systemic sclerosisl. • Diagnosis based upon Raynauds phenomenon, positive ANA, high titre anti-Scl 70 antibodies, marked skin changes typical of scleroderma, and esophageal dysmotility. • Previously tried Cyclophosphamide and Mycophenolate Mofetil. • Progressive disease and worsening scleroderma skin features, despite therapy. • Rapid progressive cardiac disease, verified by biopsy.
Experimental Treatment • 5th December 2014 received first dose of Degarelix 240 mg sc. • 9th January 2015 received second dose of Degarelix 80 mg sc.
[…] They are important factors in patients' evaluations of quality of life2. Their precise objective evaluation can be included in randomized controlled trials3. Their pathogenesis is unclear. Histologically, there is a plug-like hyperkeratosis with parakeratosis, homogenized collagen fibers and perivascular mononuclear cell infiltration4.

CC(=O)N[C@H](Cc1ccc2ccccc2c1)C(=O)N[C@H](Cc1ccc(Cl)cc1)C(=O)N[C@H](Cc1cccnc1)C(=O)N[C@@H](CO)C(=O)N[C@@H](Cc1ccc(NC(=O)[C@@H]2CC(=O)NC(=O)N2)cc1)C(=O)N[C@H](Cc1ccc(NC(N)=O)cc1)C(=O)N[C@@H](CC(C)C)C(=O)N[C@@H](CCCCNC(C)C)C(=O)N1CCC[C@H]1C(=O)N[C@H](C)C(N)=O [Degarelix] (Ac-[d2Nal][dPhe(4-Cl)][d3Pal]S[Phe(4-NH2)](Dihydroorotyl(S))[dPhe(4-NHCONH2)]L[Lys(iPr)]P[dA]-NH2)
ANA (<1) ([1]; 07.11.14): 26↑
FSH (<12) ([1]; 07.11.14): <0.1
LH (<12) ([1]; 07.11.14): <0.3
Total urinary protein ([1]; 07.11.14): 0.17 g/L
ANA (<1) ([1]; 14.10.14): 28↑
FSH (<12) ([1]; 14.10.14): <0.1
Total urinary protein ([1]; 14.10.14): 0.15^2 g/L
FSH (<12) ([1]; 15.09.14 (day of loading dose)): 14↑
LH (<12) ([1]; 15.09.14 (day of loading dose)): 11
Total urinary protein ([1]; 15.09.14 (day of loading dose)): 0.78↑ g/L
ANA (<1) ([1]; 15.09.14 (day of loading dose), out of range): >32↑
FSH (<12) ([1]; 23.09.14): 2
LH (<12) ([1]; 23.09.14): <0.3
Total urinary protein ([1]; 23.09.14): 0.75↑ g/L
proteinuria ([1]; at 2 months): in remission
morning pain ([1]; before treatment): 3.5 h
proteinuria ([1]; by 1 month): complete remission
morning pain ([1]; by 8 weeks): 0 h
morning pain ([1]; by day 5): 1.5 h
morning pain ([1]; by day 10): 0 h
ulcers on hands and feet ([1]; by day 10 of treatment): several ulcers had healed
ANA (<1) ([1]; column 23.09.14 (25.09.14)): 31↑
Fecal calprotectin (<50 normal) (patient with colitis; 02.10.14): 48, normal mg/kg
Fecal calprotectin (<50 normal) (patient with colitis; 10.01.15): 32, normal mg/kg
Fecal calprotectin (<50 normal) (patient with colitis; 24.09.14 (started 10 Sep. 2014)): 79, high mg/kg
partial Mayo score (patient with colitis; at 12 weeks): 0
partial Mayo score (patient with colitis; baseline): 3
Digital tip ulcers/pitting scars ([2]; 5 weeks): 2
Modified Rodnan Skin Score ([2]; 5 weeks): 40
Sleep ([2]; 5 weeks): 5 hrs/night
VAS Fatigue ([2]; 5 weeks): 75
VAS Fingertip pain/pitting scars/ulcers ([2]; 5 weeks): 40
VAS Gastrointestinal Symptoms ([2]; 5 weeks): 80
VAS Global ([2]; 5 weeks): 40
VAS Lung/dyspnea ([2]; 5 weeks): 80
VAS Pain ([2]; 5 weeks): 10
VAS Raynauds/vascular ([2]; 5 weeks): 40
Digital tip ulcers/pitting scars ([2]; 6 weeks): 2
Modified Rodnan Skin Score ([2]; 6 weeks): 40
Sleep ([2]; 6 weeks): 5.5 hrs/night
VAS Fatigue ([2]; 6 weeks): 60
VAS Fingertip pain/pitting scars/ulcers ([2]; 6 weeks): 30
VAS Gastrointestinal Symptoms ([2]; 6 weeks): 60
VAS Global ([2]; 6 weeks): 40
VAS Lung/dyspnea ([2]; 6 weeks): 50
VAS Pain ([2]; 6 weeks): 10
VAS Raynauds/vascular ([2]; 6 weeks): 30
fingertip pain score (0-100 mm) ([2]; after 6 weeks of treatment (FIG. 12)): 30
Digital tip ulcers/pitting scars ([2]; baseline 5.12.14): 5
HAQ DI ([2]; baseline 5.12.14): 1.88
Modified Rodnan Skin Score ([2]; baseline 5.12.14): 42
Sleep ([2]; baseline 5.12.14): 2 hrs/night
VAS Fatigue ([2]; baseline 5.12.14): 100
VAS Fingertip pain/pitting scars/ulcers ([2]; baseline 5.12.14): 100
VAS Gastrointestinal Symptoms ([2]; baseline 5.12.14): 100
VAS Global ([2]; baseline 5.12.14): 100
VAS Lung/dyspnea ([2]; baseline 5.12.14): 100
VAS Pain ([2]; baseline 5.12.14): 100
VAS Raynauds/vascular ([2]; baseline 5.12.14): 100
fingertip pain score (0-100 mm) ([2]; baseline prior to treatment (FIG. 11)): 100 mm
